The results in this text go back to patent US7217815B2, “2-beta -modified-6-substituted adenosine analogs and their use as antiviral agents” (Valeant Pharmaceuticals North America, priority 2002, dated 2007).

In experiment [1] the test system is Bovine viral diarrhea virus (BVDV) (strain NADL). Kind of experiment: Assay for inhibition of BVDV. The experiment is classed as cell-based. To be noted: MDBK cells. How it is done:
Bovine viral diarrhea virus (BVDV) (strain NADL) was provided by Dr. Ruben Donis and propagated in MDBK cells (ATCC). The nucleoside libraries and compounds were tested utilizing the modified protocol (V. B. Vassilev, M. S. Collett, R. O. Donis, J. Viol. 1997, 71, 471–478; S. G. Bagginski, D. C. Pevear, M. Seipel, S. C. C. Sun, C. A. Benetatos, S. K. Chunduru, C. M. Rice, M. S. Collett, Proc. Natl. Acad. Sci. U.S.A. 2000, 97, 7981–7986)

Experiment [2] concerns HCV replicon RNA in replicon cells (Huh-7). The experiment in a line: HCV replicon assay. The experiment is classed as cell-based. To be noted: Huh-7 replicon cells, 3 days incubation, reduction of HCV RNA (Quantigene). How it is done:
The replicon cells (Huh-7) contain replicating HCV replicon RNA, which was modified in the structural region (replacing the structural region with a neomycin resistance marker). Survival of the replicon cells under G418 selection relies on the replication of HCV RNA and subsequently expression of neomycin phosphoryltransferase. The ability of modified nucleoside libraries and compounds to suppress HCV RNA replication was determined using the Quantigene Assay Kit from Bayer. The assay measures the reduction of HCV RNA molecules in the treated cells. Replicon cells were incubated at 37° C. for 3 days in the presence of nucleoside libraries and compounds before harvested for detection. HCV subgenomic replicon cell line was provided by Dr. Bartenschlager. The assay protocol was modified based on literature procedure (V. Lohmann, F. Korner, J. O. Koch, U. Herian, L. Theilmann, R. Bartenschlager, Science, 1999, 285, 110–113).

Bounds are passed on as bounds.

What is called EC50 is the concentration at which the effect is half-maximal. The low end stands for an effect from little substance, the high end for a need for much substance. Take `CSc1cccc(Nc2ncnc3c2ncn3[C@@H]2O[C@H](CO)[C@@H](O)[C@@]2(C)O)c1` [Compound S1-4, N^6-[3-(Methylthio)phenyl]-9H-(2′-β-C-methyl-β-D-ribofuranosyl)adenine]: the EC50 in experiment [1] and in experiment [2] was greater than 100 µM each time.

Take `C[C@@]1(O)[C@H](O)[C@@H](CO)O[C@H]1n1cnc2c(NC[C@H]3CCCO3)ncnc21` [Compound S1-6, N^6-(R-Tetrahydrofurfuryl)-9H-(2′-β-C-methyl-β-D-ribofuranosyl)adenine]: the EC50 in experiment [1] and in experiment [2] was greater than 100 µM in each case.

Consider `CCOc1ccccc1CNc1ncnc2c1ncn2[C@@H]1O[C@H](CO)[C@@H](O)[C@@]1(C)O` [Compound S1-7, N^6-(2-Ethoxybenzyl)-9H-(2′-β-C-methyl-β-D-ribofuranosyl)adenine], for which the EC50 was greater than 100 µM in experiment [1] and 10 to 100 µM in experiment [2].

Consider `CC1(C)OCC(CNc2ncnc3c2ncn3[C@@H]2O[C@H](CO)[C@@H](O)[C@@]2(C)O)O1` (stereo partly drawn) [Compound S1-8, N^6-(2,2-Dimethyl-1,3-dioxolane-4-methyl)-9H-(2′-β-C-methyl-β-D-ribofuranosyl)adenine], for which the EC50 in experiment [1] and in experiment [2] was greater than 100 µM each time.

In the case of `C[C@@]1(O)[C@H](O)[C@@H](CO)O[C@H]1n1cnc2c(NCCO)ncnc21` [Compound S1-9, N^6-[2-(Hydroxy)ethyl]-9H-(2′-β-C-methyl-β-D-ribofuranosyl)adenine], the EC50 in experiment [1] is greater than 100 µM; in experiment [2] it was 10 to 100 µM.

Regarding `C[C@@]1(O)[C@H](O)[C@@H](CO)O[C@H]1n1cnc2c(NN)ncnc21` [Compound S1-11, 6-(Hydrazinyl)-9H-(2′-β-C-methyl-β-D-ribofuranosyl)purine], the EC50 in experiment [1] was 25 to 100 µM; in experiment [2] it was less than 10 µM.

Take `CN(C)Nc1ncnc2c1ncn2[C@@H]1O[C@H](CO)[C@@H](O)[C@@]1(C)O` [Compound S1-12, 6-(N,N-Dimethylhydrazino)-9H-(2′-β-C-methyl-β-D-ribofuranosyl)purine]: the EC50 in experiment [1] is less than 25 µM; in experiment [2] it was less than 10 µM.

`C[C@@]1(O)[C@H](O)[C@@H](CO)O[C@H]1n1cnc2c(N(N)CCO)ncnc21` [Compound S1-13, 6-[N^1-(Hydroxyethyl)hydrazino]-9H-(2′-β-C-methyl-β-D-ribofuranosyl)purine]: the EC50 in experiment [1] is greater than 100 µM; in experiment [2], less than 10 µM.

As to `C[C@@]1(O)[C@H](O)[C@@H](CO)O[C@H]1n1cnc2c(NNC=O)ncnc21` [Compound S1-14, 6-[(N^2-formyl)hydrazino]-9H-(2′-β-C-methyl-β-D-ribofuranosyl)purine], the EC50 is greater than 100 µM in experiment [1] and 10 to 100 µM in experiment [2].

For `CN(N)c1ncnc2c1ncn2[C@@H]1O[C@H](CO)[C@@H](O)[C@@]1(C)O` [Compound S1-15, 6-(N^1-methylhydrazino)-9H-(2′-β-C-methyl-β-D-ribofuranosyl)purine], the EC50 was greater than 100 µM in experiment [1] and less than 10 µM in experiment [2].

Consider `COC(=O)NNc1ncnc2c1ncn2[C@@H]1O[C@H](CO)[C@@H](O)[C@@]1(C)O` [Compound S1-16], for which the values for the EC50 in experiment [1] and in experiment [2] were 25 to 100 µM and less than 10 µM, respectively.

Turning to `CC(=O)NNc1ncnc2c1ncn2[C@@H]1O[C@H](CO)[C@@H](O)[C@@]1(C)O` [Compound S1-17, 6-[N^2-(Acetyl)hydrazino]-9H-(2′-β-C-methyl-β-D-ribofuranosyl)purine], the results for the EC50 in experiment [1] and in experiment [2] were less than 25 µM and less than 10 µM, respectively.

`C[C@@]1(O)[C@H](O)[C@@H](CO)O[C@H]1n1cnc2c(NNS(C)(=O)=O)ncnc21` [Compound S1-18]: the EC50 in experiment [1] is 25 to 100 µM; in experiment [2], less than 10 µM.

Take `C[C@@]1(O)[C@H](O)[C@@H](CO)O[C@H]1n1cnc2c(NO)ncnc21` [Compound S1-19, 6-Hydroxyamino-9H-(2′-β-C-methyl-β-D-ribofuranosyl)purine]: the figures for the EC50 in experiment [1] and in experiment [2] were 25 to 100 µM and less than 10 µM, respectively.

Take `CON(C)c1ncnc2c1ncn2[C@@H]1O[C@H](CO)[C@@H](O)[C@@]1(C)O` [Compound S1-20, 6-(N,O-Dimethylhydroxylamine)-9H-(2′-β-C-methyl-β-D-ribofuranosyl)purine]: the results for the EC50 in experiment [1] and in experiment [2] were greater than 100 µM and 10 to 100 µM, respectively.

Regarding `CC(C)(C)OC(=O)NOc1ncnc2c1ncn2[C@@H]1O[C@H](CO)[C@@H](O)[C@@]1(C)O` [Compound S1-21, 6-(N-(t-Butyloxycarbonyl)aminoxy]-9H-(2′-β-C-methyl-β-D-ribofuranosyl)purine], the half-maximal effective concentration (EC50) is greater than 100 µM in experiment [1] and less than 10 µM in experiment [2].

`C[C@@]1(O)[C@H](O)[C@@H](CO)O[C@H]1n1cnc2c(ONC(=O)OCc3ccccc3)ncnc21` [Compound S1-22, 6-[(N-Benzyloxycarbonyl)aminoxy]-9H-(2′-β-C-methyl-β-D-ribofuranosyl)purine]: the EC50 in experiment [1] was greater than 100 µM; in experiment [2] it was less than 10 µM.

Take `C[C@@]1(O)[C@H](O)[C@@H](CO)O[C@H]1n1cnc2c(NCCN)ncnc21` [Compound S2-1, N^6-(2-Aminoethyl)-9H-(2′-β-C-methyl-β-D-ribofuranosyl)adenine]: the EC50 in experiment [1] is 25 to 100 µM; in experiment [2] it was less than 10 µM.

With `C[C@@]1(O)[C@H](O)[C@@H](CO)O[C@H]1n1cnc2c(NCCNc3ncnc4c3ncn4[C@@H]3O[C@H](CO)[C@@H](O)[C@@]3(C)O)ncnc21` [Compound S2-2, N,N′-Bis[N^6-9H-(2′-β-C-methyl-β-D-ribofuranosyl)adenin-6-yl]ethylenediamine], the EC50 in experiment [1] (Bovine viral diarrhea virus isolates and strains) is greater than 100 µM; in experiment [2] (Hepatitis C virus, 72 h) it was 10 to 100 µM.

Regarding “N^6-(2-Phenylpropyl)-9H-(2′-β-C-methyl-β-D-ribofuranosyl)adenine [Compound S1-5]”, the EC50 in experiment [1] and in experiment [2] was greater than 100 µM each time.
